Measurements reported in patent EP1247803A2, “Indolinone compounds suitable for modulation of protein kinases” (Sugen, Inc., priority 1996, dated 1998).

How the values were obtained:
FLK-1 receptor = biological target: T1, FLK-1 receptor (Mus musculus, UniProt P35918); experiment: FLK-1 ELISA (kinase activity of the FLK-1 receptor in FLK-1/NIH3T3 cells, VEGF stimulated); format: cell-based; set-up: concentration or dose not given beside the values
T1 construct: expressed in transfected cells; host or cells: NIH3T3 C7#3
In short: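 An ELISA using affinity-purified rabbit anti-FLK-1 antiserum on anti-rabbit IgG-coated plates measured VEGF-stimulated FLK-1 kinase activity. NIH3T3 C7#3 cells carrying FLK-1 were serum-starved (0.1% FBS) overnight, then exposed to compound (final 1:200 dilution, 0.5% DMSO) for two hours at 37 °C.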

PDGF-R = PDGF-R (Homo sapiens, UniProt P09619); experiment: PDGF-R ELISA; format: cell-based
Description: A PDGF-R ELISA is described in International Patent Publication No. WO 96/40116, published December 19, 1996 by Tang et al.

MET = MET biochemical kinase assay; set-up: species or system human; concentration or dose not given beside the values
In short: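 MET from cell lysates captured on ELISA plates via rabbit anti-MET cytoplasmic-domain antibody; compounds added and kinase reaction run in ATP and divalent-metal buffer. Receptor phosphotyrosine detected with HRP-conjugated anti-phosphotyrosine antibody and TMB colorimetry.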

T1 sequence (P35918 20-1345): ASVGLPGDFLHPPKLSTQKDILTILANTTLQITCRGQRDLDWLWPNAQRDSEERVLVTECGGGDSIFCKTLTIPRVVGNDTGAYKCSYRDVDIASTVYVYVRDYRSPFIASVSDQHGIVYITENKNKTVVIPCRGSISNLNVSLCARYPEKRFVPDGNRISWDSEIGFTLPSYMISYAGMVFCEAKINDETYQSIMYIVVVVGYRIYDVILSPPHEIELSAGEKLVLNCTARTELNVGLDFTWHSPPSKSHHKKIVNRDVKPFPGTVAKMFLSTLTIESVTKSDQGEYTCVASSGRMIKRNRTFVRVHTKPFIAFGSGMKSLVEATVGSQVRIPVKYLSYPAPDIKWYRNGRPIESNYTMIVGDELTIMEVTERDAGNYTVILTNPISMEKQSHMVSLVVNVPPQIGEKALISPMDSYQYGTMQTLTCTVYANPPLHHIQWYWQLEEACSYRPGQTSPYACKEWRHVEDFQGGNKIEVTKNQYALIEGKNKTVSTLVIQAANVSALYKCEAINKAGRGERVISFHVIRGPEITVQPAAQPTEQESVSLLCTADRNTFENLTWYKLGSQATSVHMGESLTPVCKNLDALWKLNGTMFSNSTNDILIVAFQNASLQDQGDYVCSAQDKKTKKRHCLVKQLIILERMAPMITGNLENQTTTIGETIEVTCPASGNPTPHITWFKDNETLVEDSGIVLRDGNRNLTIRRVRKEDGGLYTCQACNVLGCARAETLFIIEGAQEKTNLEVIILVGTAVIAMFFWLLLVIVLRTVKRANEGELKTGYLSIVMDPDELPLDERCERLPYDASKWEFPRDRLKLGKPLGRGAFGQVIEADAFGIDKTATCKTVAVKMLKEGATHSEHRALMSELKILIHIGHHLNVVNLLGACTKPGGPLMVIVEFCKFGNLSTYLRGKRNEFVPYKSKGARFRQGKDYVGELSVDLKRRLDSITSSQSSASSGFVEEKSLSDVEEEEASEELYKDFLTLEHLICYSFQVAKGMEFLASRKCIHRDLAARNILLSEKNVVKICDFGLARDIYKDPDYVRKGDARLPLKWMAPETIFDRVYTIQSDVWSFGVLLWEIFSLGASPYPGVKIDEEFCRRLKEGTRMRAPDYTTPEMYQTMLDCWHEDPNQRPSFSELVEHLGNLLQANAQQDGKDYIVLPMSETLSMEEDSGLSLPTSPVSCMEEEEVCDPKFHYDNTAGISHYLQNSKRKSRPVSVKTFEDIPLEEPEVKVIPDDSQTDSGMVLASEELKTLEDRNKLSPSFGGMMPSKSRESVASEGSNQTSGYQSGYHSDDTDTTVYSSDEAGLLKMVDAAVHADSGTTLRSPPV
PDGF-R, sequence (P09619 33-1106, species assumed): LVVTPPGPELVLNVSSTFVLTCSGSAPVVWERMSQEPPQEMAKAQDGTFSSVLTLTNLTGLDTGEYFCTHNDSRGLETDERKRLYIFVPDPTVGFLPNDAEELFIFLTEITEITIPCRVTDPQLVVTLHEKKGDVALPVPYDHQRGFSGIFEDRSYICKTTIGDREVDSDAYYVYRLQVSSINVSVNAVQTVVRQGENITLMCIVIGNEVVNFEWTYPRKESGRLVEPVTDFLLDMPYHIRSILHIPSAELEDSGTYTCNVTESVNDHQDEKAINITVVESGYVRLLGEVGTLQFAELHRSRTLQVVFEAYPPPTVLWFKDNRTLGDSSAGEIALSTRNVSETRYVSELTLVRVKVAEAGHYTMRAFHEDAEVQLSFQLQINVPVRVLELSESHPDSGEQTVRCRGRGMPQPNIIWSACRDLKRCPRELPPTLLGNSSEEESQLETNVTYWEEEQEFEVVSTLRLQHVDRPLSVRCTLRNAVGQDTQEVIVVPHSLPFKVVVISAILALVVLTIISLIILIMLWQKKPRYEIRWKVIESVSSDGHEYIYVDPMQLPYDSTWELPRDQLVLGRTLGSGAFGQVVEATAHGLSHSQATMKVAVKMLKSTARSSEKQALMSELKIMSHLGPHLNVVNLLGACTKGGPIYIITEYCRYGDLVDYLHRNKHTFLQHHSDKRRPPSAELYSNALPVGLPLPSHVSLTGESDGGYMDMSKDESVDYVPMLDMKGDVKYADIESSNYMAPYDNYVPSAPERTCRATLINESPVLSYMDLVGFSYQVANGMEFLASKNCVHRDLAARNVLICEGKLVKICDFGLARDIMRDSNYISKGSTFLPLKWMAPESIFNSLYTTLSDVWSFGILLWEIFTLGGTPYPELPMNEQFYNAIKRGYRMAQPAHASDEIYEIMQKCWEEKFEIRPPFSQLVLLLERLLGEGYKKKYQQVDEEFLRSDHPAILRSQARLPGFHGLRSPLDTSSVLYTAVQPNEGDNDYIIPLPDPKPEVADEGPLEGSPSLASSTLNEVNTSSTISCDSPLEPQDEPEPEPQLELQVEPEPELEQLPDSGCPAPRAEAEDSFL

Row | SMILES | Fik Kinase %Inhibition (FLK-1 receptor) [%] | PDGF Kinase %Inhibition (PDGF-R) [%] | Met Kinase % Inhibition (MET) [%]
1 | COc1cc(C=C2C(=O)Nc3ccc(S(=O)(=O)N4CCOCC4)cc32)cc(OC)c1OC [10730/F04] | 18.3 | 28.7 | 36.0
2 | O=C1Nc2c(Br)cc(Br)cc2C1=Cc1coc2ccc(Cl)cc2c1=O [10730/A06] | -7.0 | 6.3 | 61.0
3 | CC(=O)n1cc(C=C2C(=O)Nc3c(Br)cc(Br)cc32)c2ccccc21 [10730/A05] | -10.8 | 2.8 | 42.7
4 | O=C1Nc2c(Br)cc(Br)cc2C1=Cc1coc2c(Br)cc(Br)cc2c1=O [10730/A09] | 1.9 | -4.7 | 69.5
5 | O=C1Nc2ccc(I)cc2C1=Cc1cc2ccccc2nc1Cl [10730/B08] | 4.4 | 0.2 | 91.8
6 | COc1cc(OC)c(OC)cc1C=C1C(=O)Nc2ccc(S(=O)(=O)Nc3ccc(C(F)(F)F)cc3)cc21 [10730/E03] | 34.5 | 14.6 | 53.3
7 | CNS(=O)(=O)c1ccc2c(c1)C(=Cc1cc(OC)c(OC)cc1OC)C(=O)N2 [10730/D03] | 8.4 | 19.0 | 34.2
8 | Cc1c(Br)ccc2c1C(=Cc1coc3ccc(Cl)cc3c1=O)C(=O)N2 [10730/C06] | 5.3 | 7.6 | 34.7
9 | COc1ccc(C=C2C(=O)Nc3ccc(Br)c(C)c32)c(OC)c1OC [10730/C02] | 48.8 | 26.5 | 31.2
10 | O=C1Nc2ccc(S(=O)(=O)Nc3ccc(C(F)(F)F)cc3)cc2C1=Cc1cccnc1 [10729/E08] | 10.9 | 11.0 | 73.7
